Measurements reported in patent US20210127671A1, “HYPERSENSITIVE RESPONSE ELICITOR PEPTIDES AND USE THEREOF” (priority 2015, published 2021).
Peptide text beside a SMILES is read from it.

What was measured:
[1] = Stability against chemical degradation in water or pH buffers at 50° C. (HPLC); conditions: for precipitation during stability test: 0.2% AI, 0.25% Proxel GXL, 50 mM buffers; for precipitation during stability test / stability after 14 days: 50° C.; for solution stability (in words): aqueous solution; for % remaining after 14 days incubation: 50 mM TES, pH 8.0, 50° C.; for stability after 14 days: 50 mM EDTA, pH 8 (FIG. 24)
Description: Briefly, the stability and resistance to chemical degradation of peptides can be assessed as follows using peptide samples having an initial purity of at least about 80%, at least about 82%, at least about 84%, at least about 86%, at least about 88%, at least about 90%, at least about 92%, at least about 94%, at least about 96%, or at least about 98%. For water stability, the peptide is dissolved directly in de-ionized water. For chemical degradation tests, the peptide is dissolved in an aqueous solution containing 50 mM pH buffer and 0.25% Proxel GXL. Exemplary pH buffers include, without limitation: (i) Citrate pH 5.6; (ii) MES pH 6.2; (iii) MOPS pH 6.5; (iv) imidazole pH 7.0; (v) Citrate pH 7.2; (vi) EDDS, pH 7.3; (vii) EDTA pH 8.0; (viii) sodium phosphate pH 8.0; or (ix) TES pH 8.0. Peptides are first dissolved in the aqueous solution at a concentration of 0.5 mg/ml. […] An initial sample of the peptide is removed, diluted 10× with water, and analyzed by reverse-phase HPLC. Briefly, 20 μl of the sample is injected into the solvent flow of an HPLC instrument and analyzed on a C18 HPLC column (YMC ProPack C18, YMC, Japan, or C18 Stablebond, Agilent Technologies, USA) using either a triethylamine phosphate in water/acetonitrile gradient or a 0.1% TFA in water/0.1% TFA in acetonitrile gradient to separate different peptide species. Eluting peptides are monitored by UV absorbance at 218 nm and quantified based on the area under the peak. The area under the peak for the initial peptide sample is treated as the standard for relative quantification in subsequent runs. At regular intervals (e.g., 1, 3, 7, 10, 14, 17, and 21 days), each peptide sample is surveyed and analyzed by HPLC as described above.
Stability against chemical degradation was assessed in various pH buffers by creating 0.2% AI solutions of pure, chemically synthesized peptide in deionized water, 0.25% weight to volume of Proxel® GXL (biocide), and 50 millimolar (mM) of eight buffers (separately) as follows: MES pH 5.6, MOPS pH 6.5, Citrate pH 7.2, EDDS pH 7.3, EDTA pH 8, Phosphate pH 8, Imidazole pH 8, and TES pH 8.

[2] = 0.2% AI in deionized water, 48 hours at room temperature

## CC[C@H](C)[C@H](NC(=O)CNC(=O)[C@H](CCC(=O)O)NC(=O)[C@@H](N)CC(N)=O)C(=O)N[C@@H](CO)C(=O)N[C@@H](CCC(=O)O)C(=O)N[C@@H](CCCCN)C(=O)N[C@@H](CCC(=O)O)C(=O)N[C@@H](CC(C)C)C(=O)N[C@@H](CC(=O)O)C(=O)N[C@@H](CCC(=O)O)C(=O)N[C@@H](CC(C)C)C(=O)N[C@@H](CC(C)C)C(=O)N[C@H](C(=O)N[C@@H](CCC(=O)O)C(=O)N[C@@H](CC(C)C)C(=O)N[C@H](C(=O)N[C@@H](CCC(=O)O)C(=O)N[C@@H](C)C(=O)N[C@@H](CC(C)C)C(=O)N[C@@H](CC(C)C)C(=O)N[C@@H](CCC(N)=O)C(=O)N[C@@H](CCC(N)=O)C(=O)O)[C@@H](C)CC)[C@@H](C)O [P1-2E,8E,11E,15E,18E] (H-NEGISEKELDELLTELIEALLQQ-OH; N-terminus and C-terminus assumed)
[1]
  precipitation during stability test: remained in solution
  solution stability (in words): improved solubility and stability when compared with P1
[2]
  solubility: soluble

## CC[C@H](C)[C@H](NC(=O)CNC(=O)[C@H](CCC(N)=O)NC(=O)[C@@H](N)CC(N)=O)C(=O)N[C@@H](CO)C(=O)N[C@@H](CCC(=O)O)C(=O)N[C@@H](CCCCN)C(=O)N[C@@H](CCC(N)=O)C(=O)N[C@@H](CC(C)C)C(=O)N[C@@H](CC(=O)O)C(=O)N[C@@H](CCC(N)=O)C(=O)N[C@@H](CC(C)C)C(=O)N[C@@H](CC(C)C)C(=O)N[C@H](C(=O)N[C@@H](CCC(N)=O)C(=O)N[C@@H](CC(C)C)C(=O)N[C@H](C(=O)N[C@@H](C)C(=O)N[C@@H](C)C(=O)N[C@@H](CC(C)C)C(=O)N[C@@H](CC(C)C)C(=O)N[C@@H](CCC(N)=O)C(=O)N[C@@H](CCC(N)=O)C(=O)O)[C@@H](C)CC)[C@@H](C)O [Peptide P1-18A] (H-NQGISEKQLDQLLTQLIAALLQQ-OH; N-terminus and C-terminus assumed)
[1]
  % remaining after 14 days incubation: 47%

## CC[C@H](C)[C@H](NC(=O)CNC(=O)[C@H](CCC(N)=O)NC(=O)[C@@H](N)CC(N)=O)C(=O)N[C@@H](CO)C(=O)N[C@@H](CCC(=O)O)C(=O)N[C@@H](CCCCN)C(=O)N[C@@H](CCC(N)=O)C(=O)N[C@@H](CC(C)C)C(=O)N[C@@H](CC(=O)O)C(=O)N[C@@H](CCC(N)=O)C(=O)N[C@@H](CC(C)C)C(=O)N[C@@H](CC(C)C)C(=O)N[C@H](C(=O)N[C@@H](CCC(N)=O)C(=O)N[C@@H](CC(C)C)C(=O)N[C@H](C(=O)N[C@H](C(=O)N[C@@H](C)C(=O)N[C@@H](CC(C)C)C(=O)N[C@@H](CC(C)C)C(=O)N[C@@H](CCC(N)=O)C(=O)N[C@@H](CCC(N)=O)C(=O)O)[C@@H](C)O)[C@@H](C)CC)[C@@H](C)O [Peptide P1-18T] (H-NQGISEKQLDQLLTQLITALLQQ-OH; N-terminus and C-terminus assumed)
[1]
  % remaining after 14 days incubation: 71%

## CC[C@H](C)[C@H](NC(=O)CNC(=O)[C@H](CCC(N)=O)NC(=O)[C@@H](N)CO)C(=O)N[C@@H](CO)C(=O)N[C@@H](CCC(=O)O)C(=O)N[C@@H](CCCCN)C(=O)N[C@@H](CCC(N)=O)C(=O)N[C@@H](CC(C)C)C(=O)N[C@@H](CC(=O)O)C(=O)N[C@@H](CCC(N)=O)C(=O)N[C@@H](CC(C)C)C(=O)N[C@@H](CC(C)C)C(=O)N[C@@H](CO)C(=O)N[C@@H](CCC(N)=O)C(=O)N[C@@H](CC(C)C)C(=O)N[C@H](C(=O)N[C@@H](CCC(N)=O)C(=O)N[C@@H](C)C(=O)N[C@@H](CC(C)C)C(=O)N[C@@H](CC(C)C)C(=O)N[C@@H](CCC(N)=O)C(=O)N1CCC[C@H]1C(=O)O)[C@@H](C)CC [Peptide P4-14S] (H-SQGISEKQLDQLLSQLIQALLQP-OH; N-terminus and C-terminus assumed)
[1]
  precipitation during stability test: remained in solution
  solution stability (in words): highly stable peptide
[2]
  solubility: completely soluble

## CC[C@H](C)[C@H](NC(=O)[C@@H](NC(=O)[C@H](CCC(N)=O)NC(=O)[C@H](CCCNC(=N)N)NC(=O)[C@H](CC(=O)O)NC(=O)[C@@H](NC(=O)[C@@H]1CCCN1C(=O)[C@H](CCC(N)=O)NC(=O)[C@@H](N)CCC(N)=O)[C@@H](C)CC)[C@@H](C)O)C(=O)N[C@@H](CCC(=O)O)C(=O)N[C@@H](CCC(N)=O)C(=O)N[C@@H](CCSC)C(=O)N[C@@H](C)C(=O)N[C@@H](CCC(N)=O)C(=O)N[C@@H](CC(C)C)C(=O)N[C@@H](CC(C)C)C(=O)N[C@@H](C)C(=O)N[C@@H](CCC(N)=O)C(=O)N[C@@H](CC(C)C)C(=O)N[C@@H](CC(C)C)C(=O)N[C@@H](CCCCN)C(=O)N[C@@H](CO)C(=O)N[C@@H](CC(C)C)C(=O)N[C@@H](CC(C)C)C(=O)O [Peptide P18-1] (H-QQPIDRQTIEQMAQLLAQLLKSLL-OH)
[1]
  stability after 14 days: > 90%

## CC[C@H](C)[C@H](NC(=O)[C@@H](NC(=O)[C@H](CCC(N)=O)NC(=O)[C@H](CCCNC(=N)N)NC(=O)[C@@H](N)CC(=O)O)[C@@H](C)O)C(=O)N[C@@H](CCC(=O)O)C(=O)N[C@@H](CCC(N)=O)C(=O)N[C@@H](CC(C)C)C(=O)N[C@@H](C)C(=O)N[C@@H](CCC(N)=O)C(=O)N[C@@H](CC(C)C)C(=O)N[C@@H](CC(C)C)C(=O)N[C@@H](C)C(=O)N[C@@H](CCC(N)=O)C(=O)N[C@@H](CC(C)C)C(=O)N[C@@H](CC(C)C)C(=O)N[C@@H](CCCCN)C(=O)N[C@@H](CO)C(=O)N[C@@H](CC(C)C)C(=O)N[C@@H](CC(C)C)C(=O)N[C@@H](CO)C(=O)N1CCC[C@H]1C(=O)O [Peptide P18-4] (H-DRQTIEQLAQLLAQLLKSLLSP-OH)
[1]
  stability after 14 days: 60%

## CC[C@H](C)[C@H](N)C(=O)N[C@H](C(=O)N1CCC[C@H]1C(=O)N[C@@H](CC(=O)O)C(=O)NCC(=O)N[C@@H](CCC(N)=O)C(=O)NCC(=O)NCC(=O)NCC(=O)N[C@@H](CCC(N)=O)C(=O)N[C@H](C(=O)NCC(=O)N[C@@H](CC(=O)O)C(=O)N[C@@H](CC(N)=O)C(=O)N1CCC[C@H]1C(=O)N[C@@H](CC(C)C)C(=O)N[C@@H](CC(C)C)C(=O)N[C@@H](CCCCN)C(=O)N[C@@H](C)C(=O)N[C@@H](CC(C)C)C(=O)N[C@@H](CC(C)C)C(=O)N[C@@H](CCCCN)C(=O)N[C@@H](CC(C)C)C(=O)N[C@H](C(=O)N[C@@H](C)C(=O)O)[C@@H](C)CC)[C@@H](C)CC)[C@@H](C)O [Peptide P19-20L] (H-ITPDGQGGGQIGDNPLLKALLKLIA-OH; N-terminus and C-terminus assumed)
[1]; 50 mM citrate pH 7.2 or 50 mM TES, pH 8.0
  stability compared with P19 (in words): modest increase in stability

## CC[C@H](C)[C@H](N)C(=O)N[C@H](C(=O)N1CCC[C@H]1C(=O)N[C@@H](CC(=O)O)C(=O)NCC(=O)N[C@@H](CCC(N)=O)C(=O)NCC(=O)NCC(=O)NCC(=O)N[C@@H](CCC(N)=O)C(=O)N[C@H](C(=O)NCC(=O)N[C@@H](CC(=O)O)C(=O)N[C@@H](CC(N)=O)C(=O)N1CCC[C@H]1C(=O)N[C@@H](CC(C)C)C(=O)N[C@@H](CC(C)C)C(=O)N[C@@H](CCCCN)C(=O)N[C@@H](C)C(=O)N[C@@H](CCSC)C(=O)N[C@@H](CC(C)C)C(=O)N[C@@H](CCCCN)C(=O)N[C@@H](CC(C)C)C(=O)N[C@H](C(=O)N[C@@H](C)C(=O)O)[C@@H](C)CC)[C@@H](C)CC)[C@@H](C)O [Peptide P19] (H-ITPDGQGGGQIGDNPLLKAMLKLIA-OH; N-terminus and C-terminus assumed)
[1]; buffer or solvent
  remaining at 336 h: 52%
